This note sets out measurements from patent publication EP4624471A1, “PKMYT1 INHIBITOR, PREPARATION METHOD THEREFOR, AND PHARMACEUTICAL COMPOSITION AND USE THEREOF” (Shanghai Qilu Pharmaceutical Research and Development …, priority 2022, dated 2024).

In general, IC50 refers to the concentration that gives 50% inhibition.

One experiment deals with T1, PKMYT1 enzyme (Homo sapiens, UniProt Q99640).
T1 construct: purchased Thermo Scientific A33387
T1 sequence (Q99640 1-499): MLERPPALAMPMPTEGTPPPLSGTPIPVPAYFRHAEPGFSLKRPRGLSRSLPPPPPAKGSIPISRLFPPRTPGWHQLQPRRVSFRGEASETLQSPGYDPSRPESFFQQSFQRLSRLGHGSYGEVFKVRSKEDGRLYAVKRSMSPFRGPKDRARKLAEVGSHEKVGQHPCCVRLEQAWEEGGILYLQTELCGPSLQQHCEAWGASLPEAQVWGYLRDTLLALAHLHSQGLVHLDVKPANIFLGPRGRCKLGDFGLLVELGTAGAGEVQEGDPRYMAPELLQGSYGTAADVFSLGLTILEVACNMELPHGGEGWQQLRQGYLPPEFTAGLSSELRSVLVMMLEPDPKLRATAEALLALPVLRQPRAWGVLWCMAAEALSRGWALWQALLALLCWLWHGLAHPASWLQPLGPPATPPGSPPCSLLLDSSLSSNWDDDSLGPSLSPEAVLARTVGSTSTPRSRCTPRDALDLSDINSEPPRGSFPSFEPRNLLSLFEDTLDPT
The experiment is described as follows: PKMYT1 enzyme inhibition activity, ADP-GLO method. Particulars: PKMYT1 enzyme 10 nM, ATP 5 µM, 37°C 90 minutes; read-out: ADP-GLO IC50. It counts as biochemical. On the technique in general: In ADP-Glo the light output rises with the ADP produced.
`Cc1ccc(O)c(C)c1-n1c(N)c(C(N)=O)c2cnc(C#CC3CC3)nc21` [Example 12, 6-Amino-2-(cyclopropylethynyl)-7-(3-hydroxy-2,6-dimethylphenyl)-7H-pyrrolo[2,3-d]pyrimidine-5-carboxamide]: the IC50 was 6.58 nM.

Take `C=CCCc1cc2c(C(N)=O)c(N)n(-c3c(C)cc(F)c(O)c3C)c2nc1C` [Example 157]: the IC50 was found to be 60.6 nM.

On to `Cc1nc(C2CC2)c2c(C(N)=O)c(N)n(-c3c(C)ccc(O)c3C)c2n1` (racemic) [Example 62], for which the half-inhibitory concentration (IC50) is 16.9 nM.

As for `[2H]C([2H])([2H])c1nc2c(cc1C(F)(F)F)c(C(N)=O)c(N)n2-c1c(C)cc(F)c(O)c1C` (racemic) [Example 194], the IC50 was 6.36 nM.

As to `C/C=C/c1ncc2c(C(N)=O)c(N)n(-c3c(C)ccc(O)c3C)c2n1` [Example 79], the IC50 was 4.74 nM.

As for `Cc1ccc(O)c(C)c1-n1c(N)c(C(N)=O)c2cnc(C3=CCCCC3)nc21` [Example 9, 6-Amino-2-(cyclohex-1-en-1-yl)-7-(3-hydroxy-2,6-dimethylphenyl)-7H-pyrrolo[2,3-d]pyrimidine-5-carboxamide], the IC50 stood at 9.05 nM.

Turning to `CCc1nc(C)nc2c1c(C(N)=O)c(N)n2-c1c(C)ccc(O)c1C` (racemic) [Example 66], the IC50 is 22.5 nM.

Consider `COc1ccc(CNc2ncc3c(C(N)=O)c(N)n(-c4c(C)ccc(O)c4C)c3n2)cc1` [Example 15, 6-Amino-7-(3-hydroxy-2,6-dimethylphenyl)-2-((4-methoxybenzyl)amino)-7H-pyrrolo[2,3-d]pyrimidine-5-carboxamide], for which the IC50 is 168 nM.

As to `Cc1cc(F)c(O)c(C)c1-n1c(N)c(C(N)=O)c2cc3c(nc21)CCC3` [Example 183], the IC50 came out at 33.8 nM.

For `COc1ncc2c(C(N)=O)c(N)n(-c3c(C)ccc(O)c3C)c2n1` [Example 46, 6-Amino-7-(3-hydroxy-2,6-dimethylphenyl)-2-methoxy-7H-pyrrolo[2,3-d]pyrimidine-5-carboxamide], the IC50 amounted to 43.6 nM.

Regarding `Cc1ccc(O)c(C)c1-n1c(N)c(C(N)=O)c2cnc(C#N)nc21` [Example 14, 6-Amino-2-cyano-7-(3-hydroxy-2,6-dimethylphenyl)-7H-pyrrolo[2,3-d]pyrimidine-5-carboxamide], the IC50 was 24.3 nM.

Take `Cc1nc(C)c2c(C(N)=O)c(N)n(-c3c(C)ccc(O)c3C)c2n1` [Example 19, 6-Amino-7-(3-hydroxy-2,6-dimethylphenyl)-2,4-dimethyl-7H-pyrrolo[2,3-d]pyrimidine-5-carboxamide]: the IC50 came out at 4.5 nM.

In the case of `C#Cc1ncc2c(C(N)=O)c(N)n(-c3c(C)ccc(O)c3C)c2n1` [Example 47, 6-Amino-2-ethynyl-7-(3-hydroxy-2,6-dimethylphenyl)-7H-pyrrolo[2,3-d]pyrimidine-5-carboxamide], the IC50 amounted to 12.9 nM.

`Cc1cc2c(C(N)=O)c(N)n(-c3c(C)c(C)cc(O)c3C)c2nc1C` [Example 53, 2-Amino-1-(3-hydroxy-2,5,6-trimethylphenyl)-5,6-dimethyl-1H-pyrrolo[2,3-b]pyridine-3-carboxamide]: the IC50 amounted to 194 nM.

With `COc1cc2c(C(N)=O)c(N)n(-c3c(C)cc(F)c(O)c3C)c2nc1C` (atropisomer, axis not shown) [Example 158.1], the IC50 turned out to be 7.5 nM.

Turning to `CCc1nc(C)nc2c1c(C(N)=O)c(N)n2-c1c(C)c(O)cc(F)c1C` [Example 61], the IC50 came out at 38.6 nM.

In the case of `Cc1cc(F)c(O)c(C)c1-n1c(N)c(C(N)=O)c2cc(C3=CCOCC3)c(C)nc21` (atropisomer, axis not shown) [Example 175], the IC50 is 4.8 nM.

Consider `Cc1ccc(O)c(C)c1-n1c(N)c(C(N)=O)c2cnc(Br)nc21` [Example 7, 6-Amino-2-bromo-7-(3-hydroxy-2,6-dimethylphenyl)-7H-pyrrolo[2,3-d]pyrimidine-5-carboxamide], for which the IC50 came out at 9.41 nM.

For `Cc1cc(F)c(O)c(C)c1-n1c(N)c(C(N)=O)c2cc(CO)c(C)nc21` [Example 164], the IC50 amounted to 7.06 nM.

Consider `Cc1cc(F)c(O)c(C)c1-n1c(N)c(C(N)=O)c2cc(C(F)F)c(C)nc21` [Example 204], for which the IC50 came to 18.9 nM.

`Cc1cc(F)c(O)c(C)c1-n1c(N)c(C(N)=O)c2cc3c(nc21)CCO3` [Example 184]: the IC50 was determined as 88.8 nM.

Regarding `Cc1ccc(O)c(C)c1-n1c(N)c(C(N)=O)c2cnc(N(C)C)nc21` [Example 36, 6-Amino-2-(dimethylamino)-7-(3-hydroxy-2,6-dimethylphenyl)-7H-pyrrolo[2,3-d]pyrimidine-5-carboxamide], the IC50 was found to be 17.4 nM.

Consider `Cc1ccc(O)c(C)c1-n1c(N)c(C(N)=O)c2cnc(C3CCOCC3)nc21` [Example 18, 6-Amino-7-(3-hydroxy-2,6-dimethylphenyl)-2-(tetrahydro-2H-pyran-4-yl)-7H-pyrrolo[2,3-d]pyrimidine-5-carboxamide], for which the IC50 was found to be 18.3 nM.

On to `Cc1nc(Cl)c2c(C(N)=O)c(N)n(-c3c(C)ccc(O)c3C)c2n1` [Example 28, 6-Amino-4-chloro-7-(3-hydroxy-2,6-dimethylphenyl)-2-methyl-7H-pyrrolo[2,3-d]pyrimidine-5-carboxamide], for which the IC50 was found to be 13.8 nM.

For `Cc1cc(F)c(O)c(C)c1-n1c(N)c(C(N)=O)c2c3c(cnc21)CCC3` (atropisomer, axis not shown) [Example 186.2], the IC50 turned out to be 3.91 nM.

`Cc1ccc(O)c(C)c1-n1c(N)c(C(N)=O)c2cnc(C3CCCCC3)nc21` [Example 10, 6-Amino-2-cyclohexyl-7-(3-hydroxy-2,6-dimethylphenyl)-7H-pyrrolo[2,3-d]pyrimidine-5-carboxamide]: the IC50 amounted to 13 nM.

`COc1nc2c(cc1C)c(C(N)=O)c(N)n2-c1c(C)cc(F)c(O)c1C` [Example 167]: the IC50 came out at 22 nM.

Turning to `Cc1ncc2c(C(N)=O)c(N)n(-c3c(C)c(O)cc(F)c3C)c2n1` (racemic) [Example 63], the IC50 turned out to be 5.14 nM.

As for `Cc1cc(F)c(O)c(C)c1-n1c(N)c(C(N)=O)c2cc(C3CC3)cnc21` (single isomer, unassigned) [Example 144.1], the IC50 is 2.08 nM.

Regarding `Cc1ccc(O)c(C)c1-n1c(N)c(C(N)=O)c2cnc(C3CCC(F)(F)CC3)nc21` [Example 88], the IC50 was 16 nM.

On to `Cc1cc2c(cn1)c(C(N)=O)c(N)n2-c1c(C)ccc(O)c1C` [Example 31, 2-Amino-1-(3-hydroxy-2,6-dimethylphenyl)-6-methyl-1H-pyrrolo[3,2-c]pyridine-3-carboxamide], for which the IC50 is 11.1 nM.

Regarding `Cc1cc2c(C(N)=O)c(N)n(-c3c(C)cc(F)c(O)c3C)c2nc1Cl` [Example 74], the IC50 came to 7.11 nM.

As to `Cc1cc(F)c(O)c(C)c1-n1c(N)c(C(N)=O)c2cc(Cl)c(C)nc21` (atropisomer, axis not shown) [Example 60.2], the IC50 worked out at 1.88 nM.

With `CCc1nc(C)nc2c1c(C(N)=O)c(N)n2-c1c(C)cc(F)c(O)c1C` [Example 67], the IC50 turned out to be 54.6 nM.

Turning to `CCc1ccc(O)c(CC)c1-n1c(N)c(C(N)=O)c2cnc(C)nc21` [Example 32, 6-Amino-7-(2,6-diethyl-3-hydroxyphenyl)-2-methyl-7H-pyrrolo[2,3-d]pyrimidine-5-carboxamide], the IC50 was 263 nM.

On to `Cc1ccc(O)c(C)c1-n1c(N)c(C(N)=O)c2cc(NC(=O)Nc3ccccc3)c(C)nc21` [Example 91], for which the IC50 was found to be 41.7 nM.

Turning to `Cc1cc(F)c(O)c(C)c1-n1c(N)c(C(N)=O)c2cc3c(nc21)CCCC3` (racemic) [Example 177], the IC50 came to 34.7 nM.

On to `Cc1ccc(O)c(C)c1-n1c(N)c(C(N)=O)c2cncnc21` [Example 45, 6-Amino-7-(3-hydroxy-2,6-dimethylphenyl)-7H-pyrrolo[2,3-d]pyrimidine-5-carboxamide], for which the IC50 amounted to 10.8 nM.

`Cc1ncc2c(C(N)=O)c(N)n(-c3c(C)cc(F)c(O)c3C)c2n1` [Example 65]: the IC50 was found to be 23.8 nM.

Take `Cc1cc(F)c(O)c(C)c1-n1c(N)c(C(N)=O)c2cc(C(C)(C)O)c(C)nc21` (racemic) [Example 172]: the IC50 was 16.4 nM.

For `Cc1cc(F)c(O)c(C)c1-n1c(N)c(C(N)=O)c2cc(C(F)(F)F)cnc21` (racemic) [Example 154], the IC50 was found to be 13.9 nM.

For `Cc1cc(F)c(O)c(C)c1-n1c(N)c(C(N)=O)c2cc(CC(F)(F)F)c(C)nc21` [Example 174], the IC50 was determined as 4.7 nM.

For the compound `Cc1ccc(O)c(C)c1-n1c(N)c(C(N)=O)c2cnc(NC3CC3)nc21` [Example 84], the IC50 is 5.28 nM.

As to `Cc1cc2c(C(N)=O)c(N)n(-c3c(C)cc(F)c(O)c3C)c2nc1F` [Example 73], the IC50 was 13.4 nM.

On to `Cc1cc(F)c(O)c(C)c1-n1c(N)c(C(N)=O)c2cc(C(C)C)cnc21` (racemic) [Example 170], for which the IC50 came out at 18.1 nM.

Staying with this experiment, now noted: read-out: ADP-GLO IC50; PKMYT1 enzyme 10 nM, ATP 5 µM, 37°C 90 minutes.
Turning to `Cc1ccc(O)c(C)c1-n1c(N)c(C(N)=O)c2cnc(CC(C)C)nc21` (atropisomer, axis not shown) [Example 57.1], the IC50 stood at 15.1 nM.

Regarding `Cc1ccc(O)c(C)c1-n1c(N)c(C(N)=O)c2cnc(/C=C/C3CC3)nc21` [Example 78], the IC50 was 8.23 nM.

`Cc1ccc(O)c(C)c1-n1c(N)c(C(N)=O)c2cc3c(nc21)CCO3` (racemic) [Example 190]: the IC50 was 4.93 nM.

On to `Cc1nc(C)c2c(C(N)=O)c(N)n(-c3c(C)ccc(O)c3C)c2n1` (atropisomer, axis not shown) [Example 19.2], for which the IC50 amounted to 9.55 nM.
